Experimental findings from patent US20240327334A1, “Covalent Inhibitors As Antiviral Agents” (Enanta Pharmaceuticals, Inc., priority 2022, published 2024) are described below.

The target in this assay is SARS-CoV-2 Papain-like (PLpro) protease (Severe acute respiratory syndrome coronavirus 2, UniProt P0DTD1). Put plainly: SARS-CoV-2 Papain-like (PLpro) protease biochemical enzyme inhibition assay (ubiquitin-fluorophore substrate, Ub-R110).
[1] abbreviates: Ub-R110 substrate, run in duplicate, read-out: PLpro IC50.

Each structure is given as a SMILES string. Like-named read-outs stand apart in the source and are kept apart here.

On to `C#CCNC(=O)C(=O)NCc1ccccc1C(=O)NC1(c2cc(-c3cn(-c4ccc(F)cc4F)nn3)cc(C(F)(F)F)c2)CC1` [Example 57], for which the IC50 – broadly, the concentration at which inhibition is half-maximal – under setting [1] is 1000 to 10000 nM.
In the case of `COc1cccc(Oc2cc(C(F)(F)F)cc(C3(NC(=O)c4ccccc4CNC(=O)C(=O)NCC#N)CC3)c2)c1` [Example 64], the half-maximal inhibitory concentration (IC50) under setting [1] is over 10000 nM.
As to `N#Cc1ccc(C#CCNC(=O)C(=O)NCc2ccccc2C(=O)NC2(c3cccc4ccccc34)COC2)c(F)c1` [Example 108], the IC50 under setting [1] was over 10000 nM.
The same measure, in the same setting: under `O=C(NCC#Cc1nccs1)C(=O)NCc1ccccc1C(=O)NC1(c2cccc3nc(C4CC4)ccc23)CC1` [Example 390] stands under 100 nM.
Regarding `COc1cc(C2(NC(=O)c3ccccc3CNC(=O)C(=O)NC/C=C/c3ccccn3)CC2)cc2cn(C3CC3)nc12` [Example 581], the IC50 under setting [1] lay within 100 to 1000 nM.
On the same count and under the same terms, under `C[C@@H](C#Cc1ccc(F)cc1C#N)NC(=O)C(=O)NCc1ccccc1C(=O)NC1(c2ccc3nn(C)cc3c2)CC1` [Example 101] stands 100 to 1000 nM; under `O=C(NCc1ccccc1C(=O)NC1(c2ccc(F)c3ccccc23)CC1)C(=O)N[C@H]1CNC1=O` [Example 122], over 10000 nM; under `C[C@@H](C#Cc1nccs1)NC(=O)C(=O)NCc1ccccc1C(=O)NC1(c2cccc3c2ccn3C)CC1` [Example 531], under 100 nM.
As for `N#C[C@H]1CCN1C(=O)C(=O)NCc1ccccc1C(=O)NC1(c2cccc3ccccc23)CC1` [Example 120], under setting [1], the IC50 is over 10000 nM.
Still for that read-out and setting: the same measure for `O=C(NCC#Cc1ccc(F)cc1)C(=O)NCc1ccccc1C(=O)NC1(c2ccc3ccccc3c2)CC1` [Example 76]: over 10000 nM.
Take `N#CC1CCCN1C(=O)C(=O)NCc1ccccc1C(=O)NC1(c2cccc3ccccc23)CC1` (centres unmarked) [Example 41]: the half-inhibitory concentration (IC50) under setting [1] is over 10000 nM.
The same measure, in the same setting: the same measure for `C=CCNC(=O)C(=O)NCc1ccccc1C(=O)NC1(c2ccc3ccccc3c2)CC1` [Example 497]: over 10000 nM.
Still for that read-out and setting: under `CC(C)n1nccc1C#CCNC(=O)C(=O)NCc1ccccc1C(=O)NC1(c2cc(F)cc(-c3cnn(C4CC4)c3)c2)CC1` [Example 278] stands 100 to 1000 nM; under `Cn1cc2ccc(C3(NC(=O)c4ccccc4CNC(=O)C(=O)NCC#N)CC3)cc2n1` [Example 340], 100 to 1000 nM.
Still for that read-out and setting: under `C#CCNC(=O)C(=O)NCc1ccccc1C(=O)NC1(c2cccc3ccccc23)CC1` [Example 32] stands under 100 nM.
With `C[Si](C)(C)C#CCNC(=O)C(=O)NCc1ccccc1C(=O)NC1(c2ccc3ccccc3c2)CC1` [Example 202], the IC50 was over 10000 nM.
For the compound `C[C@@H](NC(=O)c1ccccc1CNC(=O)C(=O)NC/C=C/C(=O)N1CCCNC(=O)C1)c1cccc2ccccc12` [Example 549], under setting [1], the IC50 lay in the range of 100 to 1000 nM.
For the compound `C[C@@H](NC(=O)c1ccccc1CNC(=O)C(=O)NCC#N)c1cc(C(F)(F)F)nc2ccccc12` [Example 325], under setting [1], the IC50 is over 10000 nM.
On the same count and under the same terms, under `N#CCNC(=O)C(=O)NCc1ccccc1C(=O)NC1(c2c[nH]c3ncccc23)CC1` [Example 408] stands under 100 nM.
As to `C#CCNC(=O)C(=O)NCc1ccccc1C(=O)NC1(c2cc(Oc3ccccc3)cc(C(F)(F)F)c2)CC1` [Example 67], the IC50 under setting [1] was over 10000 nM.
On the same count and under the same terms, the same measure for `COCC(C)(C)NC(=O)/C=C/CNC(=O)C(=O)NCc1ccccc1C(=O)N[C@H](C)c1cccc2ccccc12` [Example 565]: 1000 to 10000 nM; for `N#CCNC(=O)C(=O)NCc1ccccc1C(=O)NC1(c2cccc(Br)c2F)CC1` [Example 373]: 100 to 1000 nM; for `COc1cc(C2(NC(=O)c3ccccc3CNC(=O)C(=O)NC[C@@H]3CCN3C#N)CC2)cc2cn(C3CC3)nc12` [Example 516]: under 100 nM.
Take `CC#CC(=O)NNC(=O)C(=O)NCc1ccccc1C(=O)N[C@H](C)c1cccc2ccccc12` [Example 7]: the IC50 under setting [1] is over 10000 nM.
Still for that read-out and setting: under `C[C@@H](NC(=O)c1ccccc1CNC(=O)C(=O)NC/C=C/C(=O)NC(C)(C)CO)c1cccc2ccccc12` [Example 551] stands 1000 to 10000 nM; under `N#CCNC(=O)C(=O)NCc1ccccc1C(=O)NC1(c2ccnc3c2ccn3C2CC2)CC1` [Example 406], under 100 nM.
